These results are taken from US20120058989A1, “ANTIBACTERIAL FLUOROQUINOLONE ANALOGS” (Achaogen, Inc., priority 2008, published 2012).

The structures appear in SMILES notation.

What all share (test): MIC, CLSI broth microdilution
What all share (assay type): cell-based
(In general: In broth dilution the organism is exposed to a series of concentrations in liquid medium.)

Assay [1] concerns S. pneumoniae ASPN001 (Fluoroquinolone-susceptible, ATCC49619). The following applies: Table 2. The method in brief: (§1)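 CLSI M7-A7 broth microdilution in Mueller Hinton Broth using two-fold compound serial dilutions. Inoculum was prepared from the previous day's agar colonies at a final 5×10^5 CFU/mL. Plates were incubated at 35° C for 20 hours in ambient air.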
For assay [2], the system named is A. baumannii AABA1065 (Fluoroquinolone-susceptible). The note with it: Table 2. The method in brief: as §1
The test system of assay [3] is E. coli AECO066 (Fluoroquinolone-resistant). The following applies: Table 2. The gist of the method:
as §1

Assay [4] deals with P. aeruginosa APAE001 (Fluoroquinolone-susceptible, ATCC27853). The note with it: Table 2. The method in brief:
as §1

Assay [5] has as its system S. aureus ASAU1031 (Fluoroquinolone-resistant). The following applies: Table 2. The method in brief: as §1
Assay [6] deals with A. baumannii AABA1009 (Fluoroquinolone-resistant). The note with it: Table 2. The method in brief:
as §1

Assay [7] deals with E. coli AECO001 (Fluoroquinolone susceptible, ATCC25922). The note with it: Table 2, 35° C., 20 hours. The method in brief: as §1
Assay [8] has as its system S. aureus ASAU001 (Fluoroquinolone-susceptible, ATCC29213). The following applies: Table 2. The gist of the method: as §1
The test system of assay [9] is S. pneumoniae ASPN1027 (Fluoroquinolone-resistant). The note with it: Table 2. The method in brief: as §1
Assay [10] concerns P. aeruginosa APAE054 (Fluoroquinolone-resistant). The note with it: Table 2. The method in brief: as §1

`O=C(O)c1cn(C2CC2)c2c3c(c(F)cc2c1=O)N1CCCC1COC3` (stereo not drawn) [11/8, 13-Cyclopropyl-8-fluoro-10-oxo-3a,4,5,6,10,13-hexahydro-1H,3H-pyrrolo[2′,1′:3,4][1,4]oxazepino[5,6-h]quinoline-11-carboxylic acid]: the “MIC ASPN 001” value in assay [1] is “A (MIC's of 1.0 μg/mL or less = A)”. Besides, the “MIC AABA 1065” value in assay [2] was “A (MIC's of 1.0 μg/mL or less = A)”. Besides, in assay [3], the “MIC AECO 066” value is given as “C (MIC's of greater than 8.0 μg/mL = C)”. For the same compound, in assay [4], the “MIC APAE 001” value was “C (MIC's of greater than 8.0 μg/mL = C)”. For the same compound, the “MIC ASAU 1031” value in assay [5] is “B (MIC's of greater than 1.0 μg/mL to 8.0 μg/mL = B)”. Besides, the “MIC AABA 1009” value in assay [6] is recorded as “C (MIC's of greater than 8.0 μg/mL = C)”. In addition, the “MIC AECO 001” value in assay [7] is “A (MIC's of 1.0 μg/mL or less = A)”. In assay [8], the “MIC ASAU 001” value was “A (MIC's of 1.0 μg/mL or less = A)”. Moreover, the “MIC ASPN 1027” value in [9] was “C (MIC's of greater than 8.0 μg/mL = C)”. Also, in [10], the “MIC APAE 054” value is “C (MIC's of greater than 8.0 μg/mL = C)”.
Turning to `CON=C1Cc2c(c(F)cc3c(=O)c(C(=O)O)cn(C4CC4)c23)N2CCCC2C1` (stereo not drawn) [27/11, 4-Cyclopropyl-12-fluoro-6-(methoxyimino)-1-oxo-4,5,6,7,7a,8,9,10-octahydro-1H-pyrrolo[1′,2′:1,7]azepino[2,3-h]quinoline-2-carboxylic acid], in [1], the “MIC ASPN 001” value was “B (MIC's of greater than 1.0 μg/mL to 8.0 μg/mL = B)”. Further, the “MIC AABA 1065” value in assay [2] is “B (MIC's of greater than 1.0 μg/mL to 8.0 μg/mL = B)”. In addition, in [3], the “MIC AECO 066” value is “C (MIC's of greater than 8.0 μg/mL = C)”. In addition, the “MIC APAE 001” value in assay [4] was “C (MIC's of greater than 8.0 μg/mL = C)”. In addition, the “MIC ASAU 1031” value in [5] is recorded as “C (MIC's of greater than 8.0 μg/mL = C)”. Also, the “MIC AABA 1009” value in assay [6] is “C (MIC's of greater than 8.0 μg/mL = C)”. Also, the “MIC AECO 001” value in [7] is on record as “B (MIC's of greater than 1.0 μg/mL to 8.0 μg/mL = B)”. For the same compound, the “MIC ASAU 001” value in assay [8] is on record as “A (MIC's of 1.0 μg/mL or less = A)”. Further, in assay [9], the “MIC ASPN 1027” value is listed as “C (MIC's of greater than 8.0 μg/mL = C)”. In addition, in assay [10], the “MIC APAE 054” value is on record as “C (MIC's of greater than 8.0 μg/mL = C)”.
For `NC[C@H]1C[C@@H]2CCCc3c(c(F)cc4c(=O)c(C(=O)O)cn(C5CC5)c34)N2C1.O=C(O)C(F)(F)F` [20/16, (7aS,9R)-9-(Aminomethyl)-4-cyclopropyl-12-fluoro-1-oxo-4,5,6,7,7a,8,9,10-octahydro-1H-pyrrolo[1′,2′:1,7]-azepino[2,3-h]quinoline-2-carboxylic acid trifluoroacetate], the “MIC ASPN 001” value in [1] is recorded as “A (MIC's of 1.0 μg/mL or less = A)”. For the same compound, in assay [2], the “MIC AABA 1065” value is “A (MIC's of 1.0 μg/mL or less = A)”. The “MIC AECO 066” value in assay [3] is “C (MIC's of greater than 8.0 μg/mL = C)”. Besides, the “MIC APAE 001” value in assay [4] was “B (MIC's of greater than 1.0 μg/mL to 8.0 μg/mL = B)”. Also, the “MIC ASAU 1031” value in assay [5] is given as “C (MIC's of greater than 8.0 μg/mL = C)”. The “MIC AABA 1009” value in assay [6] is recorded as “C (MIC's of greater than 8.0 μg/mL = C)”. Moreover, the “MIC AECO 001” value in assay [7] is on record as “A (MIC's of 1.0 μg/mL or less = A)”. In addition, in assay [8], the “MIC ASAU 001” value is given as “A (MIC's of 1.0 μg/mL or less = A)”. Besides, the “MIC ASPN 1027” value in assay [9] is listed as “C (MIC's of greater than 8.0 μg/mL = C)”. The “MIC APAE 054” value in assay [10] is recorded as “C (MIC's of greater than 8.0 μg/mL = C)”.
